# Results from patent US8048879B2, “Substituted 4,5,6,7-tetrahydro-isoxazolo[4,5-c]pyridine compounds and use thereof for producing medicaments” (Gruenenthal GmbH, priority 2005, dated 2011).
# Test system: batrachotoxin (BTX) binding site of the sodium channel
# Test: Affinity for the batrachotoxin (BTX) binding site of the sodium channel, [3H]-batrachotoxinin A20 α-benzoate, rat cerebrocortex synaptosomes
# Conditions: test concentration not given
row,SMILES,BTX inhibition (rat) % inhibition [%]
1,"O=C(NC1CCCC1)c1noc2c1CN(C(=O)NCc1ccc(F)cc1)CC2 [Example 2, 6,7-dihydro-4H-isoxazolo[4,5-c]pyridine-3,5-dicarboxylic acid 3-cyclopentyl amide 5-(4-fluorobenzyl amide)]",83
2,"O=C(Nc1ccccc1)c1noc2c1CN(C(=O)Nc1ccc(OC(F)(F)F)cc1)CC2 [Example 3, 6,7-dihydro-4H-isoxazolo[4,5-c]pyridine-3,5-dicarboxylic acid 3-phenyl amide 5-[(4-trifluoromethoxy-phenyl) amide]]",73
3,"Cc1ccc(NC(=O)N2CCc3onc(C(=O)NCCc4ccccc4)c3C2)cc1[N+](=O)[O-] [Example 4, 6,7-dihydro-4H-isoxazolo[4,5-c]pyridine-3,5-dicarboxylic acid 5-[(4-methyl-3-nitro-phenyl) amide] 3-(phenethyl amide)]",80
4,"O=C(NCCc1ccccc1)c1noc2c1CN(C(=O)Nc1cccc(F)c1)CC2 [Example 8, 6,7-dihydro-4H-isoxazolo[4,5-c]pyridine-3,5-dicarboxylic acid 5-[(3-fluorophenyl) amide] 3-(phenethyl amide)]",72
5,"Cc1ccc(NC(=O)N2CCc3onc(C(=O)NCc4cccs4)c3C2)cc1[N+](=O)[O-] [Example 9, 6,7-dihydro-4H-isoxazolo[4,5-c]pyridine-3,5-dicarboxylic acid 5-[(4-methyl-3-nitro-phenyl) amide] 3-[(thiophen-2-ylmethyl) amide]]",43
6,"O=C(NCc1ccccc1)c1noc2c1CN(C(=O)NCCc1ccccc1)CC2 [Example 10, 6,7-dihydro-4H-isoxazolo[4,5-c]pyridine-3,5-dicarboxylic acid 3-benzyl amide 5-(phenethyl amide)]",64
7,"N#Cc1cccc(NC(=O)N2CCc3onc(C(=O)NCc4cccs4)c3C2)c1 [Example 12, 6,7-dihydro-4H-isoxazolo[4,5-c]pyridine-3,5-dicarboxylic acid 5-[(3-cyano-phenyl) amide]3-[(thiophen-2-ylmethyl) amide]]",47
8,"CCOc1ccc(NC(=O)N2CCc3onc(C(=O)Nc4ccccc4)c3C2)cc1 [Example 13, 6,7-dihydro-4H-isoxazolo[4,5-c]pyridine-3,5-dicarboxylic acid 5-[(4-ethoxy-phenyl) amide] 3-phenyl amide]",58
9,"Cc1ccc(NC(=O)N2CCc3onc(C(=O)NCc4ccc(F)cc4)c3C2)cc1[N+](=O)[O-] [Example 14, 6,7-dihydro-4H-isoxazolo[4,5-c]pyridine-3,5-dicarboxylic acid 3-(4-fluorobenzyl amide) 5-[(4-methyl-3-nitro-phenyl) amide]]",70
10,"CC(NC(=O)N1CCc2onc(C(=O)NCCc3ccccc3)c2C1)c1cccc2ccccc12 (stereo not shown) [Example 18, 6,7-dihydro-4H-isoxazolo[4,5-c]pyridine-3,5-dicarboxylic acid 5-[(1-naphthalen-1-yl-ethyl) amide]3-(phenethyl amide)]",75
11,"CCOc1ccc(NC(=O)N2CCc3onc(C(=O)NCc4ccc(F)cc4)c3C2)cc1 [Example 21, 6,7-dihydro-4H-isoxazolo[4,5-c]pyridine-3,5-dicarboxylic acid 5-[(4-ethoxy-phenyl) amide] 3-(4-fluorobenzyl amide)]",68
12,"COc1ccc(Cl)cc1NC(=O)N1CCc2onc(C(=O)NCCc3ccccc3)c2C1 [Example 22, 6,7-dihydro-4H-isoxazolo[4,5-c]pyridine-3,5-dicarboxylic acid 5-[(5-chloro-2-methoxyphenyl) amide] 3-(phenethyl amide)]",56
13,"CCOC(=O)c1cccc(NC(=O)N2CCc3onc(C(=O)NCc4ccc(C)o4)c3C2)c1 [Example 23, 3-({3-[(5-methyl-furan-2-ylmethyl)-carbamoyl]-6,7-dihydro-4H-isoxazolo[4 5-c]pyridine-5-carbonyl}-amino)-benzoic acid ethyl ester]",46
14,"O=C(O)CC1(CC(=O)N2CCc3onc(C(=O)Nc4ccccc4)c3C2)CCCC1 [Example 28, {1-[2-oxo-2-(3-phenylcarbamoyl-6,7-dihydro-4H-isoxazolo[4,5-c]pyridin-5-yl)-ethyl]-cyclopentyl}acetic acid]",60
15,"O=C(c1noc2c1CN(S(=O)(=O)c1ccc(OC(F)(F)F)cc1)CC2)N(CCc1ccccc1)Cc1ccccc1 [Example 32, 5-(4-trifluoromethoxy-benzenesulfonyl)-4,5,6,7-tetrahydro-isoxazolo[4,5-c]pyridine-3-carboxylic acid benzyl-phenethyl amide]",59
16,"O=C(NC1CCN(Cc2ccc3ccccc3c2)C1)c1noc2c1CN(S(=O)(=O)c1ccccc1)CC2 (stereo not shown) [Example 33, 5-benzenesulfonyl-4,5,6,7-tetrahydro-isoxazolo[4,5-c]pyridine-3-carboxylic acid (1-naphthalen-2-ylmethyl-pyrrolidin-3-yl) amide]",93

row,SMILES,BTX inhibition (rat) % inhibition [%]
1,O=C(c1noc2c1CN(S(=O)(=O)c1ccc(F)cc1)CC2)N1CCN(c2ncnc3sccc23)CC1 [Example 34],42
2,"O=C(NCCCc1ccccc1)c1noc2c1CN(S(=O)(=O)c1ccc(F)cc1)CC2 [Example 35, 5-(4-fluoro-benzenesulfonyl)-4,5,6,7-tetrahydro-isoxazolo[4,5-c]pyridine-3-carboxylic acid (3-phenyl-propyl) amide]",59
3,"O=C(NC1CCN(Cc2ccc(C(F)(F)F)cc2)C1)c1noc2c1CN(S(=O)(=O)c1ccc(F)cc1)CC2 (stereo not shown) [Example 39, 5-(4-fluoro-benzenesulfonyl)-4,5,6,7-tetrahydro-isoxazolo[4,5-c]pyridine-3-carboxylic acid [1-(4-trifluoromethyl-benzyl)-pyrrolidin-3-yl]amide]",79
4,"O=C(NC1CCCC1OCc1ccccc1)c1noc2c1CN(S(=O)(=O)c1cc(Cl)ccc1Cl)CC2 (stereo not shown) [Example 40, 5-(2,5-dichloro-benzenesulfonyl)-4,5,6,7-tetrahydro-isoxazolo[4,5-c]pyridine-3-carboxylic acid (2-benzyloxy-cyclopentyl) amide]",65
5,"O=C(c1noc2c1CN(S(=O)(=O)c1ccc(F)cc1)CC2)N1CC=C(c2ccc(F)cc2)CC1 [Example 42, [5-(4-fluoro-benzenesulfonyl)-4,5,6,7-tetrahydro-isoxazolo[4,5-c]pyridin-3-yl]-[4-(4-fluorophenyl)-3,6-dihydro-2H-pyridin-1-yl]-methanone]",54
6,"CC12CCC(C(=O)N3CCc4onc(C(=O)NCCN5CCCC5)c4C3)(OC1=O)C2(C)C (stereo not shown) [Example 51, 5-(4,7,7-trimethyl-3-oxo-2-oxa-bicyclo[2.2.1]heptane-1-carbonyl)-4,5,6,7-tetrahydro-isoxazolo[4,5-c]pyridine-3-carboxylic acid (2-pyrrolidin-1-yl-ethyl) amide]",42
7,"O=C(NCCc1ccccc1Cl)c1noc2c1CN(S(=O)(=O)c1cc(Cl)ccc1Cl)CC2 [Example 52, 5-(2,5-dichloro-benzenesulfonyl)-4,5,6,7-tetrahydro-isoxazolo[4,5-c]pyridine-3-carboxylic acid [2-(2-chlorophenyl)-ethyl] amide]",44
8,"O=C(c1noc2c1CN(S(=O)(=O)c1cc(Cl)ccc1Cl)CC2)N(CCc1ccccc1)Cc1ccccc1 [Example 59, 5-(2,5-dichloro-benzenesulfonyl)-4,5,6,7-tetrahydro-isoxazolo[4,5-c]pyridine-3-carboxylic acid benzyl-phenethyl amide]",58
9,"O=C(NCCN1CCOCC1)c1noc2c1CN(S(=O)(=O)c1cc(Cl)c(Cl)s1)CC2 [Example 63, 5-(4,5-dichloro-thiophene-2-sulfonyl)-4,5,6,7-tetrahydro-isoxazolo[4,5-c]pyridine-3-carboxylic acid (2-morpholin-4-yl-ethyl) amide]",55
10,"Cc1ccc(N2CCN(C(=O)c3noc4c3CN(S(=O)(=O)c3cc(Cl)ccc3Cl)CC4)CC2)c(C)c1 [Example 65, [5-(2,5-dichloro-benzenesulfonyl)-4,5,6,7-tetrahydro-isoxazolo[4,5-c]pyridin-3-yl]-[4-(2,4-dimethyl-phenyl)-piperazin-1-yl]-methanone]",49
11,"O=C(c1noc2c1CN(S(=O)(=O)c1cccc(C(F)(F)F)c1)CC2)N(CCc1ccccc1)Cc1ccccc1 [Example 68, 5-(3-trifluoromethyl-benzenesulfonyl)-4,5,6,7-tetrahydro-isoxazolo[4,5-c]pyridine-3-carboxylic acid benzyl-phenethyl amide]",51
12,"CN(C)S(=O)(=O)N1CCc2onc(C(=O)NCCc3ccc(Cl)cc3)c2C1 [Example 76, 5-dimethylsulfamoyl-4,5,6,7-tetrahydro-isoxazolo[4,5-c]pyridine-3-carboxylic acid [2-(4-chlorophenyl)-ethyl] amide]",41
13,"O=C(NC1CCCC1)c1noc2c1CN(C(=O)COc1ccc(Cl)cc1)CC2 [Example 81, 5-[2-(4-chlorophenoxy)-acetyl]-4,5,6,7-tetrahydro-isoxazolo[4,5-c]pyridine-3-carboxylic acid cyclopentyl amide]",65
14,"Cc1ccc(S(=O)(=O)N2CCc3onc(C(=O)N4CCN(CCC5CCCCC5)CC4)c3C2)cc1 [Example 82, [4-(2-cyclohexyl-ethyl)-piperazin-1-yl]-[5-(toluene-4-sulfonyl)-4,5,6,7-tetrahydro-isoxazolo[4,5-c]pyridin-3-yl]-methanone]",69
15,"C=CCOc1ccc(CN(Cc2ccco2)C(=O)c2noc3c2CN(S(=O)(=O)c2cccc(C(F)(F)F)c2)CC3)cc1 [Example 87, 5-(3-trifluoromethyl-benzenesulfonyl)-4,5,6,7-tetrahydro-isoxazolo[4,5-c]pyridine-3-carboxylic acid (4-allyloxy-benzyl)-furan-2-ylmethyl amide]",41
